Measured values taken from the CheMixHub ionic liquid set.

Test: xn = mol fraction of the nth substance listed

C[N+](C)(C)CCC[n+]1ccccc1.N#C[N-]C#N.N#C[N-]C#N + CC#N
100 kPa
Conditions	viscosity [mPa·s]
283.15 K, x1 = 0.7001	857
288.15 K, x1 = 0.8997	1336
288.15 K, x1 = 1	3879
293.15 K, x1 = 0.1999	10.8
293.15 K, x1 = 0.3997	75.8
293.15 K, x1 = 1	2191
298.15 K, x1 = 0.8997	561
303.15 K, x1 = 0.0999	3
303.15 K, x1 = 0.2998	24.3
303.15 K, x1 = 0.7998	271
308.15 K, x1 = 0.1999	7.71
318.15 K, x1 = 0.2998	16
323.15 K, x1 = 0.0999	2.43
323.15 K, x1 = 1	210
333.15 K, x1 = 0.1999	5.08
333.15 K, x1 = 0.6002	37.6

C[n+]1ccn(CCCC#N)c1.O=S(=O)([O-])C(F)(F)F + CC#N
101 kPa
Conditions	electrical conductivity [S/m]	viscosity [mPa·s]
288.15 K, x1 = 0.1002	2.7	1.65
288.15 K, x1 = 0.2994	1.04	16.49
288.15 K, x1 = 0.5	0.185	109.8
293.15 K, x1 = 0.6005	0.22	119.8
298.15 K, x1 = 0.7996	0.114	307
303.15 K, x1 = 0.9007	0.082	330
303.15 K, x1 = 1	0.06	422
308.15 K, x1 = 0.2994	1.7	9.19
308.15 K, x1 = 1	0.08	310
313.15 K, x1 = 0.2002	2.88	3.74
313.15 K, x1 = 0.5	0.575	36.34
313.15 K, x1 = 0.7996	0.239	133.1
318.15 K, x1 = 0.1002	3.76	1.06
318.15 K, x1 = 0.5	0.679	29.94
318.15 K, x1 = 0.698	0.351	73.7
318.15 K, x1 = 0.9007	0.168	135
323.15 K, x1 = 0.1002	3.95	0.99
323.15 K, x1 = 0.6005	0.7	32.11

NCCN1CCNCC1 + CC(=O)[O-].CCCC[n+]1ccn(C)c1 + O
viscosity [mPa·s], 101 kPa
Conditions	298.15 K	303.15 K	308.15 K	313.15 K	318.15 K	323.15 K	328.15 K	333.15 K
x2 = 0.03479, x1 = 0.0177	3.7	3.32	3.04	2.97	2.6	2.31	2.16	1.97
x2 = 0.03897, x1 = 0.01333	3.73	3.62	3.32	2.99	2.61	2.41	2.31	2.11
x2 = 0.04311, x1 = 0.00893	3.76	3.66	3.32	3.02	2.64	2.48	2.34	2.21

c1c[nH]cn1 + CC(C)C[P+](C)(CC(C)C)CC(C)C.Cc1ccc(S(=O)(=O)[O-])cc1
Conditions	viscosity [mPa·s]
313.09 K, 101.33 kPa, x2 = 0.5	181

CC[n+]1ccccc1.N#C[N-]C#N + CC(C)O
100 kPa
Conditions	viscosity [mPa·s]
288.15 K, x2 = 0.2997	15.1
293.15 K, x2 = 0.1055	18
298.15 K, x2 = 0.4023	9.28
303.15 K, x2 = 0.5998	5.49
308.15 K, x2 = 0.7006	3.8
308.15 K, x2 = 0.8997	2.27
313.15 K, x2 = 0	12.5
313.15 K, x2 = 0.5998	4.42
313.15 K, x2 = 0.7006	3.43
313.15 K, x2 = 0.8007	2.66
318.15 K, x2 = 0.5998	3.99
318.15 K, x2 = 0.7006	3.11

CCCCCCCC[N+](C)(CCCCCCCC)CCCCCCCC.[Br-] + CCCCCCCCCC(=O)O
100 kPa, x1 = 0.3333
Conditions	viscosity [mPa·s]
293 K	810
298 K	570
303 K	410
308 K	310
333 K	84

CC[N+](CC)(CC)CC.[Br-] + CCCCCCCCCCCCCCn1cc[n+](C)c1.[Br-] + O
electrical conductivity [S/m], 101 kPa, frequency 0.001 MHz
Conditions	298.15 K	308.15 K	318.15 K
x2 = 0, x1 = 1.802e-05	0.0115	0.0142	0.0177
x2 = 0, x1 = 3.604e-05	0.0198	0.024	0.0294
x2 = 0, x1 = 9.009e-05	0.0417	0.0509	0.0613
